Measured values taken from patent US4118424A, “Biodegradable insecticides” (priority 1976, dated 1978).
Values after ≈ are worked out from the molar mass of the structure shown.

Legend:
[1] = test system: Musca domestica (NAIDM strain); assay: Insect toxicity, Musca domestica NAIDM strain; type: in vivo; details: for LD50: Musca domestica, without PB; for Musca domestica NAIDM (w/PB) LD50: with PB
[2] = test system: Anopheles albimanus larvae; assay: Insect toxicity, Anopheles albimanus larvae; type: in vivo
Culex fatigans larvae = assay: Insect toxicity, Culex fatigans larvae; type: in vivo; details: Culex quinquefasciatus
[3] = test system: Musca domestica Rsp strain; assay: Insect toxicity, Musca domestica Rsp strain, DDT-resistant; type: in vivo; details: for LD50: Musca domestica, without PB; for Musca domestica Rsp strain w/PB LD50: with PB
[4] = test system: Anopheles albimanus adults; assay: Insect toxicity, Anopheles albimanus adults; type: in vivo
Culex fatigans adults = assay: Insect toxicity, Culex fatigans adults; type: in vivo
Phormia regina = assay: Insect toxicity, Phormia regina; type: in vivo
Mouse toxicity, LD50 = type: in vivo, mice; details: in vivo
Culex fatigans = assay: Persistence on plywood surfaces of test huts, Culex fatigans; type: in vivo; details: adult mosquitoes
Experimental: (§1) The persistence of some of the compounds of the present invention was evaluated and compared with that of ethoxychlor. In these tests, the compounds were applied to the plywood surfaces of test huts and the mortalities of adult mosquitoes contained in the huts were measured to determine the number of weeks that 50% mortality continued to occur.

Anopheles albimanus = assay: Persistence on plywood surfaces of test huts, Anopheles albimanus; type: in vivo; details: adult mosquitoes
Experimental: as §1

mice = assay: Mouse toxicity, LD50; type: in vivo; details: versus ethoxychlor
[5] = test system: insects (flies and mosquitoes); assay: Insecticidal activity, general statement; type: in vivo; details: versus ethoxychlor
From the text: Metabolic studies involving insects, mice, and fish and a model ecosystem (such as described in U.S. Pat. No. 3,787,505) and insecticidal activity studies generally involving flies and mosquitoes have shown that both the symmetrical and the asymmetrical compounds of the present invention are effective. Thus, the new compounds can be represented by the general formula: [drawing 3] where R1 is H or Cl and R2 is CH3 or Cl, X and X^1 are the same or different and each is selected from the group consisting of C1 to C3 alkyl groups and C1 to C4 alkoxy groups.

[6] = test system: green sunfish (Lepomis cyanellus); assay: Green sunfish toxicity over a period of time; type: in vivo; details: initial concentration 0.1 ppm
From the text: The compounds of Example III, V, XI, XIV and XXI were further tested and compared with ethoxychlor to determine fish toxicities over a period of time. In these tests, green sunfish (Lepomis cyanellus) were subject to an initial concentration dosage of 0.1 ppm and the number of days that 100 percent mortalities occurred was observed.

Row | SMILES | LD50 [1] [mg/kg] | Musca domestica NAIDM (w/PB) LD50 [1] [µg/g] | LC50 [2] [µg/mL] | LC50 (Culex fatigans larvae) [µg/mL] | LD50 [3] [mg/kg] | Musca domestica Rsp strain w/PB LD50 [3] [µg/g] | Anopheles albimanus adults LC50 [4] [ug/cm^2] | Culex fatigans adults-LC50 (Culex fatigans adults) [ug/cm^2] | LD50 (Phormia regina) [mg/kg] | LD50 (Mouse toxicity, LD50) [mg/kg] | Culex fatigans, P50 (number of weeks that at least 50% mortality occurred) (Culex fatigans) [weeks] | Anopheles albimanus, P50 (number of weeks that at least 50% mortality occurred) (Anopheles albimanus) [weeks] | safety to mice relative to ethoxychlor (mice) | insecticidal activity relative to ethoxychlor [5] | Number of days 100% mortality [6] [days]
1 | Cc1ccc(C(c2ccc(C)cc2)C(C)Cl)cc1 (stereo not drawn) [Example II] | > 500 | 24.5 | > 1 | 0.22 (≈ 0.85 µM) | > 500 | 140 | 6.9 | 9.7 | > 250 |  |  |  |  |  | 
2 | CCOc1ccc(C(c2ccc(OCC)cc2)C(C)(Cl)Cl)cc1 [Example XIX] | 17.5 | 7 | 0.041 (≈ 0.116 µM) | 0.094 (≈ 0.266 µM) | 90 | 23.5 | 49 | > 160 | 24 | < 300 | 40 | > 20 |  |  | 
3 | CCOc1ccc(C(c2ccc(OC)cc2)C(C)C)cc1 (stereo not drawn) [Example X] | 65 | 12 | 0.17 (≈ 0.598 µM) | 0.13 (≈ 0.457 µM) | 110 | 17.5 | 6.3 | 16.5 | 28.5 |  |  |  |  |  | 
4 | CCOc1ccc(C(c2ccc(OC)cc2)C(C)Cl)cc1 (stereo not drawn) [IV] | 47 | 4.7 | 0.15 (≈ 0.492 µM) | 0.15 (≈ 0.492 µM) | 100 | 4.8 | 27 | > 160 | 12 |  |  |  |  |  | 
5 | CCCc1ccc(C(c2ccc(CCC)cc2)C(C)Cl)cc1 (stereo not drawn) [IX] | 55 | 45 | 0.068 (≈ 0.216 µM) | 0.145 (≈ 0.46 µM) | 120 | 90 | 17 | > 160 | > 250 |  |  |  |  |  | 
6 | CCCc1ccc(C(c2ccc(C)cc2)C(C)Cl)cc1 (stereo not drawn) [VIII] | 65 | 29 | 0.18 (≈ 0.628 µM) | 0.18 (≈ 0.628 µM) | 155 | 85 | 7.2 | 12 | 97.5 |  |  |  |  |  | 
7 | CCCOc1ccc(C(c2ccc(OCCC)cc2)C(C)Cl)cc1 (stereo not drawn) [VII] | 28 | 10 | 0.16 (≈ 0.461 µM) | 0.12 (≈ 0.346 µM) | 85 | 42 | > 160 | > 160 | 42.5 |  |  |  |  |  | 
8 | CCCOc1ccc(C(c2ccc(OCC)cc2)C(C)Cl)cc1 (stereo not drawn) [VI] | 15.5 | 3.2 | 0.075 (≈ 0.225 µM) | 0.05 (≈ 0.15 µM) | 25 | 5.5 | 14.5 | > 160 | 62.5 |  |  |  |  |  | 
9 | CCCOc1ccc(C(c2ccc(OCCC)cc2)C(C)C)cc1 [XIII] | 100 | 21.5 | 0.25 (≈ 0.766 µM) | 0.3 (≈ 0.919 µM) | 185 |  | > 160 | > 160 | 200 |  |  |  |  |  | 
10 | CCCOc1ccc(C(c2ccc(OCC)cc2)C(C)C)cc1 (stereo not drawn) [XII] | 21 | 6.5 | 0.056 (≈ 0.179 µM) | 0.39 (≈ 1.25 µM) | 42 | 22.5 | 35 | > 160 | 60 | ≥ 1000 |  |  | at least five times safer to mice than is ethoxychlor | at least generally comparable to ethoxychlor | 
11 | COc1ccc(C(c2ccc(OC)cc2)C(C)(Cl)Cl)cc1 [XVIII] | 65 | 8 | 0.18 (≈ 0.553 µM) | 0.061 (≈ 0.188 µM) | 155 | 9.5 | 1.63 | > 160 | 13.5 |  |  |  |  |  | 
12 | Cc1ccc(C(c2ccc(C)cc2)C(C)(Cl)Cl)cc1 [XVII] | 145 | 18 | 0.13 (≈ 0.443 µM) | 0.2 (≈ 0.682 µM) | 270 | 7.0 | 5 | 8.0 | 8 |  |  |  |  |  | 
13 | CCCCOc1ccc(C(c2ccc(C)cc2)C(C)C)cc1 (stereo not drawn) [XVI] | > 500 | 240 | 0.19 (≈ 0.641 µM) | > 1 | > 500 | > 500 | > 160 | > 160 | > 250 |  |  |  |  |  | 
14 | CCCOc1ccc(C(c2ccc(C)cc2)C(C)C)cc1 (stereo not drawn) [XV] | 175 | 100 | 0.42 (≈ 1.49 µM) | 0.55 (≈ 1.95 µM) | 370 | 220 | 29 | > 160 | 250 |  |  |  |  |  | 
15 | CCOc1ccc(C(c2ccc(OCC)cc2)C(C)(C)Cl)cc1 [XXI] | 115 | 12 | > 1 | > 1 | 180 | 25.5 | > 160 | > 160 | > 250 | ≥ 1000 |  |  | at least five times safer to mice than is ethoxychlor | at least generally comparable to ethoxychlor | 0
16 | COc1ccc(C(c2ccc(OC)cc2)C(C)(C)Cl)cc1 [XX] | > 500 | 12 | > 1 | > 1 | > 500 | 26 | 16 | > 160 | 75 |  |  |  |  |  | 
17 | CCOc1ccc(C(c2ccc(OCC)cc2)C(Cl)(Cl)Cl)cc1 [ethoxychlor, reference compound] |  |  |  |  |  |  |  |  |  |  | 8 | > 44 |  |  | 21
